In PubChem BioAssay (NCI) one finds TGI and GI50 data, which are given here for 23 compounds.

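Exposure lasted 48 hours, with cells grown in 96-well plates and compounds tested at five concentrations. GI50 marks 50% less growth. TGI: concentration producing complete growth inhibition.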

Holding throughout (experiment): growth of human tumour cells (NCI), 48 h
Experiment [1] concerns CCRF-CEM leukemia.
For experiment [2], the system named is U251 CNS.
The subject of experiment [3] is HCC-2998 colon.
In experiment [4] the test system is COLO 205 colon.
The subject of experiment [5] is OVCAR-8 ovarian.
In experiment [6] the test system is M14 melanoma.
In experiment [7] the test system is SF-539 CNS.
The subject of experiment [8] is HS 578T breast.
Experiment [9] relates to PC-3 prostate.
For experiment [10], the system named is SK-MEL-5 melanoma.

With `COc1ccc2c(c1)CCN1CCc3cc(OC)c(OC)cc3CC21` (centres undefined), the TGI in experiment [1], in [2], in experiment [3], in [4], in experiment [5] and in experiment [6] was greater than 100 µM each time. Besides, the TGI in experiment [7] and in experiment [8] was greater than 100 µM throughout.

Take `CN(CCCNC(=O)c1nn(-c2ccc(Cl)cc2Cl)c2c1Cc1ccccc1-2)CCCNC(=O)c1nn(-c2ccc(Cl)cc2Cl)c2c1Cc1ccccc1-2`: the TGI was 3.11 µM in [9]; 2.97 µM in [1]; 3.1 µM in experiment [2]; 3 µM in experiment [3]; 3.26 µM in experiment [4]; 3.05 µM in experiment [10]. Moreover, the results for the TGI in experiment [5] and in [6] were 3.46 µM and 3.47 µM, respectively.

On to `O=C(CC(=O)Nc1ccccc1)N/N=C/c1cc(N=Nc2ccc(Br)cc2)ccc1O`, for which the TGI in experiment [1] was 5.3 µM; in experiment [2], greater than 10 µM; in experiment [3], greater than 10 µM; in experiment [4], greater than 10 µM; in [10], greater than 10 µM; in [5], greater than 10 µM. For the same compound, the TGI in [6], in experiment [7] and in [8] was greater than 10 µM each time.

Take `CCCc1ccc(NCc2cc(OC)c(OC)c(OC)c2)cc1`: the TGI in experiment [1] is 49 µM; in [2], 81.9 µM; in experiment [10], 32.5 µM; in [5] it was greater than 100 µM; in [7], 63.3 µM.

Take `C/C(=C/CC[C@]1(CO)CC[C@]2(CO)[C@H](CC[C@@H]3[C@@]4(C)CC[C@H](OC5OCC(O)C(O)C5OC5OC(CO)C(O)C(O)C5O)C(C)(C)[C@@H]4CC[C@]32C)[C@H]1O)CO` (some centres undefined): the TGI in experiment [9], in [1], in [2], in experiment [4], in experiment [10] and in experiment [5] was greater than 100 µM in each case. Further, the TGI in [6], in experiment [7] and in experiment [8] was greater than 100 µM each time.

With `O=C(O)CNC(=O)c1c2ccccc2nc2ccccc12`, the TGI in experiment [9], in experiment [1], in experiment [2], in experiment [3], in [4] and in [10] was greater than 100 µM each time. The TGI in experiment [5], in [6] and in experiment [7] was greater than 100 µM in each case.

`[N-]=[N+]=C1C(=O)C2CC3CC(C2)CC1C3`: the TGI in experiment [1], in [2], in experiment [3], in experiment [4], in [10] and in experiment [5] was greater than 100 µM each time. Further, the TGI in experiment [6] and in experiment [7] was greater than 100 µM in each case.

Consider `CCOC(=O)[C@H](Cc1ccc(O)cc1)N=C1[C@H]2CCC[C@]1(O)[C@@](C)([N+](=O)[O-])C2`, for which the TGI in experiment [1], in experiment [2], in experiment [3], in experiment [4], in [10] and in experiment [5] was greater than 100 µM in each case. The TGI in experiment [6], in experiment [7] and in experiment [8] was greater than 100 µM in each case.

In the case of `COc1cc(/C=C(/C#N)C(N)=O)ccc1O`, the TGI in experiment [1] was greater than 100 µM; in [2] it was greater than 100 µM; in [3], greater than 82.1 µM; in experiment [4], greater than 100 µM; in experiment [10], greater than 100 µM; in [5], greater than 100 µM. This compound gave a TGI in experiment [7] greater than 100 µM.

Regarding `CC(NC(C)(C)C)C(=O)c1cccc(Cl)c1` (centres undefined), the TGI in experiment [1], in experiment [2], in experiment [3], in [4], in experiment [10] and in experiment [5] was greater than 100 µM throughout. Besides, the TGI in [6] and in experiment [7] was greater than 100 µM throughout.

As to `COc1cc2c(cc1OC)C1(c3ccc(Cl)cc3)ON=C(c3ccccc3)N1CS2` (centres undefined), the TGI in experiment [1], in [2], in [3], in experiment [4], in [10] and in experiment [6] was greater than 100 µM each time. For the same compound, the TGI in experiment [7] is greater than 100 µM.

`CCOC(=O)CSc1nnc(C(Sc2nc(-c3ccccc3)c(-c3ccccc3)[nH]2)C(C)C)n1-c1ccccc1` (centres undefined): the TGI in [9] was greater than 100 µM; in [1], 28.4 µM; in experiment [2] it was greater than 10 µM; in experiment [3], 43.5 µM; in experiment [4], 28.6 µM; in experiment [10], greater than 10 µM. In addition, the TGI was greater than 31.6 µM in [5], 20.1 µM in experiment [6] and 18.8 µM in experiment [7].

For `COC(=O)CC1NC(=O)C1C1(C)OCCO1` (centres undefined), the TGI in experiment [2], in experiment [3], in experiment [4], in experiment [10], in experiment [5] and in experiment [6] was greater than 100 µM each time. In experiment [7], the TGI is greater than 100 µM.

As for `COc1ccc(C(=O)c2[nH]c(Nc3ccc(Cl)cc3)c(C(=S)Nc3ccccc3)c2N)cc1`, the TGI in [1], in [3], in experiment [4], in experiment [10], in experiment [5] and in experiment [7] was greater than 100 µM each time. This compound also registered a TGI in experiment [8] greater than 100 µM.

`O=[As](O)(O)c1ccc(N=Nc2ccc(O)cc2)cc1`: the TGI in [9], in experiment [1], in experiment [2], in experiment [4], in [10] and in experiment [5] was greater than 100 µM each time. The TGI in experiment [6] and in experiment [8] was greater than 100 µM each time.

As to `CC(C)=C/C=C1/CS(=O)(=O)C=C1C`, the TGI in [9], in experiment [1], in experiment [2], in experiment [3], in [4] and in experiment [10] was greater than 100 µM in each case. Also, the TGI in experiment [5], in experiment [6] and in experiment [7] was greater than 100 µM in each case.

`COc1cc(-c2cc(-c3cc([N+](=O)[O-])c(/C=N/NC(=O)c4ccncc4)o3)ccc2OC)ccc1C`: the TGI in experiment [3], in experiment [4], in experiment [6] and in experiment [7] was greater than 100 µM throughout.

Turning to `O=C(N/N=C/c1cc(Cl)cc(Cl)c1O)c1ccccc1O`, the TGI in [1] is greater than 100 µM; in experiment [2], 18.4 µM; in [3] it was 14.6 µM; in [4] it was greater than 100 µM; in [10], 5.38 µM; in [5], 13.9 µM. For the same compound, the TGI in experiment [6] was 4.07 µM; in experiment [7] it was 6.69 µM. In addition, the results for the GI50 in [4] and in experiment [7] were 11.2 µM and 1.75 µM, respectively.

Turning to `FC(F)(F)c1ccc2nc(Sc3ccccn3)cnc2c1`, the TGI in experiment [1] was greater than 100 µM; in experiment [2], 42.3 µM; in experiment [3] it was 38.3 µM; in [4], greater than 100 µM; in [10], 66.2 µM; in experiment [5], greater than 100 µM. For the same compound, the TGI is greater than 100 µM in experiment [6], 35.9 µM in [7] and greater than 100 µM in experiment [8].

Regarding `Cc1ccc(N=Nc2c(O)c(C(=O)Nc3ccccc3)cc3ccccc23)c([N+](=O)[O-])c1`, the TGI in [9], in experiment [1], in experiment [2], in [4], in [10] and in experiment [5] was greater than 100 µM throughout. Besides, the TGI in experiment [6] and in experiment [8] was greater than 100 µM in each case.

As to `CCOP(=O)(OCC)C(C)(CC)NC` (centres undefined), the TGI in [1] was 77.1 µM; in experiment [2], greater than 100 µM; in experiment [3], greater than 100 µM; in [4] it was greater than 100 µM; in experiment [10], greater than 100 µM; in experiment [5] it was greater than 100 µM. The TGI in experiment [6], in [7] and in experiment [8] was greater than 100 µM throughout.

For `Cc1n[nH]c(=O)n1/N=C/c1ccc([N+](=O)[O-])o1`, the TGI in experiment [9] was greater than 100 µM; in [1] it was greater than 100 µM; in [2], greater than 53.7 µM; in [3] it was 40.7 µM; in experiment [4], 20.8 µM; in experiment [10], 12.1 µM. Besides, the TGI is 34.6 µM in [5], 26.6 µM in experiment [6] and 37.1 µM in experiment [7].

`CCOc1ccc(-n2nnc3c(N)nc(N)nc32)cc1`: the TGI in experiment [9], in experiment [1], in experiment [2], in experiment [4], in experiment [10] and in [5] was greater than 100 µM in each case. Besides, the TGI in experiment [6] and in experiment [7] was greater than 100 µM each time.
